Results reported in patent US5530126A, “Process for the preparation of substituted 6-(pyrazol-3yl)-1,4-benzoxazin-3-ones” (Monsanto Company, priority 1994, dated 1996).
Where “and” joins values, the source holds several entries; their conditions need not be identical. Equal entries are not always repeated.

Tests used:
Assay type in all cases: in vivo
Annual bluegrass [1] = assay: Pre-emergence herbicide test; conditions: read-out: % plant inhibition (Anbg); for inhibition at 11210 g/ha: 11.21 kg/ha
Experimental: (§1) The tests for pre-emergence herbicide activity are conducted as follows:
(§2) Topsoil is placed in an aluminum pan and compacted to a depth of 0.95 to 1.27 cm from the top of the pan. On the top of the soil is placed a predetermined number of seeds of each of several monocotyledonous and dicotyledonous annual plant species and/or vegetative propagules of various perennial plant species. A known amount of the active ingredient dissolved or suspended in an organic solvent, e.g., acetone, or water as carrier is then applied directly to the seed bed, which is then covered with a layer of untreated topsoil to level fill the pan. After treatment, the pans are moved to a greenhouse bench where they are watered from below as needed to give adequate moisture for germination and growth.
(§3) Approximately 10-14 days (usually 11 days) after seeding and treating, the pans are observed and the results (% inhibition) are recorded.
(§4) Tables 7 and 7A below summarize the results of the pre-emergence herbicidal activity tests of compounds of this invention in weeds. The herbicidal rating shown in these tables is the percent inhibition of each plant species. The plant species usually regarded as weeds which are utilized in one set of tests, the data for which are shown in the tables, are identified by letter headings above the columns in accordance with the following legend: […]

Barnyardgrass [2] = assay: Pre-emergence herbicide test; conditions: Echinochloa crus-galli, read-out: % plant inhibition (Bygr); for inhibition at 11210 g/ha: 11.21 kg/ha
Experimental: as §1, §2, §3, §4

Cocklebur [3] = assay: Pre-emergence herbicide test; conditions: Xanthium strumarium, read-out: % plant inhibition (Cobu); for inhibition at 11210 g/ha: 11.21 kg/ha
Experimental: as §1, §2, §3, §4

Downy Brome [4] = assay: Pre-emergence herbicide test; conditions: Bromus tectorum, read-out: % plant inhibition (Dobr); for inhibition at 11210 g/ha: 11.21 kg/ha
Experimental: as §1, §2, §3, §4

Indian Mustard [5] = assay: Pre-emergence herbicide test; conditions: Brassica juncea, read-out: % plant inhibition (Inmu); for inhibition at 11210 g/ha: 11.21 kg/ha
Experimental: as §1, §2, §3, §4

Morningglory [6] = assay: Pre-emergence herbicide test; conditions: Ipomoea, read-out: % plant inhibition (Mogl); for inhibition at 11210 g/ha: 11.21 kg/ha
Experimental: as §1, §2, §3, §4

Seedling johnsongrass [7] = assay: Pre-emergence herbicide test; conditions: Sorghum halepense, read-out: % plant inhibition (Sejg); for inhibition at 11210 g/ha: 11.21 kg/ha
Experimental: as §1, §2, §3, §4

Velvetleaf [8] = assay: Pre-emergence herbicide test; conditions: Abutilon theophrasti, read-out: % plant inhibition (Vele); for inhibition at 11210 g/ha: 11.21 kg/ha
Experimental: as §1, §2, §3, §4

Wild buckwheat = assay: Pre-emergence herbicide test; conditions: Fallopia convolvulus, read-out: % plant inhibition (Wibw); for inhibition at 11210 g/ha: 11.21 kg/ha
Experimental: as §1, §2, §3, §4

Yellow nutsedge [9] = assay: Pre-emergence herbicide test; conditions: Cyperus, read-out: % plant inhibition (Yens); for inhibition at 11210 g/ha: 11.21 kg/ha
Experimental: as §1, §2, §3, §4

Annual bluegrass [10] = assay: Post-emergence herbicide test; conditions: 11.21 kg/ha, read-out: % plant inhibition (Anbg)
Excerpt: (§5) Topsoil is placed in aluminum pans having holes in the bottom and compacted to a depth of 0.95 to 1.27 cm from the top of the pan. A predetermined number of seeds of each of several dicotyledonous and monocotyledonous annual plant species and/or vegetative propagules for the perennial plant species are placed on the soil and pressed into the soil surface. The seeds and/or vegetative propagules are covered with soil and leveled. The pans are then placed on a bench in the greenhouse and watered from below as needed. After the plants reach the desired age (two to three weeks), each pan, is removed individually to a spraying chamber and sprayed by means of an atomizer, operating at a spray pressure of 170.3 kPa (10 psig) at the application rates noted. In the spray solution is an amount of an emulsifying agent mixture to give a spray solution or suspension which contains about 0.4% by volume of the emulsifier. The spray solution or suspension contains a sufficient amount of the candidate chemical in order to give application rates of the active ingredient corresponding to those shown in Tables 8 and 8A, while applying a total amount of solution or suspension equivalent to 1870 L/Ha (200 gallons/acre). The pans were returned to the greenhouse and watered as before and the injury to the plants as compared to the control is observed at approximately 10-14 days (usually 11 days) and in some instances observed again at 24-28 days (usually 25 days) after spraying. The post-emergent herbicidal activity shown in these tables is the percent inhibition of each plant species.

Barnyardgrass [11] = assay: Post-emergence herbicide test; conditions: Echinochloa crus-galli, 11.21 kg/ha, read-out: % plant inhibition (Bygr)
Excerpt: as §5

Cocklebur [12] = assay: Post-emergence herbicide test; conditions: for inhibition at 11210 g/ha: Xanthium strumarium, 11.21 kg/ha, read-out: % plant inhibition (Cobu)
Excerpt: as §5

Downy Brome [13] = assay: Post-emergence herbicide test; conditions: Bromus tectorum, 11.21 kg/ha, read-out: % plant inhibition (Dobr)
Excerpt: as §5

Indian Mustard [14] = assay: Post-emergence herbicide test; conditions: Brassica juncea, 11.21 kg/ha, read-out: % plant inhibition (Inmu)
Excerpt: as §5

Morningglory [15] = assay: Post-emergence herbicide test; conditions: for inhibition at 11210 g/ha: 11.21 kg/ha
Excerpt: as §5

Seedling johnsongrass [16] = assay: Post-emergence herbicide test; conditions: Sorghum halepense, 11.21 kg/ha, read-out: % plant inhibition (Sejg)
Excerpt: as §5

Velvetleaf [17] = assay: Post-emergence herbicide test; conditions: for inhibition at 11210 g/ha: Abutilon theophrasti, 11.21 kg/ha, read-out: % plant inhibition (Vele)
Excerpt: as §5

Yellow nutsedge [18] = assay: Post-emergence herbicide test; conditions: Cyperus, read-out: % plant inhibition (Yens); for inhibition at 11210 g/ha: 11.21 kg/ha
Excerpt: as §5

[19] = Ipomoea, read-out: % plant inhibition (Mogl)

Row | Compound | inhibition at 11210 g/ha (Annual bluegrass [1]) [%] | inhibition at 11210 g/ha (Barnyardgrass [2]) [%] | inhibition at 11210 g/ha (Cocklebur [3]) [%] | inhibition at 11210 g/ha (Downy Brome [4]) [%] | inhibition at 11210 g/ha (Indian Mustard [5]) [%] | inhibition at 11210 g/ha (Morningglory [6]) [%] | inhibition at 11210 g/ha (Seedling johnsongrass [7]) [%] | inhibition at 11210 g/ha (Velvetleaf [8]) [%] | inhibition at 11210 g/ha (Wild buckwheat) [%] | inhibition at 11210 g/ha (Yellow nutsedge [9]) [%] | inhibition at 11210 g/ha (Annual bluegrass [10]) [%] | inhibition at 11210 g/ha (Barnyardgrass [11]) [%] | inhibition at 11210 g/ha (Cocklebur [12]) [%] | inhibition at 11210 g/ha (Downy Brome [13]) [%] | inhibition at 11210 g/ha (Indian Mustard [14]) [%] | inhibition at 11210 g/ha (Morningglory [15]; [19]) [%] | inhibition at 11210 g/ha (Seedling johnsongrass [16]) [%] | inhibition at 11210 g/ha (Velvetleaf [17]) [%] | inhibition at 11210 g/ha (Yellow nutsedge [18]) [%] | further results
1 | Cn1nc(C(F)(F)F)c(Cl)c1-c1cc(F)c(Cl)cc1Cl [Compound 80] | 90 | 70 | 60 | 70 | 80 | 60 | 80 | 100 | 90 | 0 | 0 | 0 | 10 | 0 | 0 | 10 | 0 | 60 | 0 | –
2 | Cn1nc(C(F)(F)F)c(Cl)c1-c1cc(F)c([N+](=O)[O-])cc1F [Compound 70] | 40 | 40 | 20 | 20 | 80 | 80 | 80 | 90 | 80 | 0 | 10 | 40 | 30 | 10 | 20 | 40 | 10 | 50 | 0 | –
3 | Cn1nc(-c2cc(OCC(=O)OC(C)(C)C)c(Cl)cc2F)c(Cl)c1C(F)(F)F [Compound 294, (2-Chloro-5-(4-chloro-1-methyl-5-(trifluoromethyl)-1H-pyrazol-3-yl)-4-fluorophenoxy)acetic acid, 1,1-dimethylethyl ester] | – | – | – | – | – | – | – | – | – | – | – | – | – | – | – | – | – | – | – | inhibition at 1120 g/ha (Annual bluegrass [1]; 1.12 kg/ha): 0%; inhibition at 1120 g/ha (Barnyardgrass [2]; 1.12 kg/ha): 20%; inhibition at 1120 g/ha (Cocklebur [3]; 1.12 kg/ha): 80%; inhibition at 1120 g/ha (Downy Brome [4]; 1.12 kg/ha): 20%; inhibition at 1120 g/ha (Indian Mustard [5]; 1.12 kg/ha): 0%; inhibition at 1120 g/ha (Morningglory [6]; 1.12 kg/ha): 70%; inhibition at 1120 g/ha (Seedling johnsongrass [7]; 1.12 kg/ha): 20%; inhibition at 1120 g/ha (Velvetleaf [8]; 1.12 kg/ha): 70%; inhibition at 1120 g/ha (Wild buckwheat; 1.12 kg/ha): 90%; inhibition at 1120 g/ha (Yellow nutsedge [9]; 1.12 kg/ha): 0%; % plant inhibition (Cobu) (Cocklebur [12]; 1.12 kg/ha): 50%; % plant inhibition (Mogl) (Morningglory [15]; 1.12 kg/ha): 90%; inhibition at 1120 g/ha (Morningglory [15]; Ipomoea, 1.12 kg/ha, read-out: % plant inhibition (Mogl)): 80%; % plant inhibition (Vele) (Velvetleaf [17]; 1.12 kg/ha): 50% and 80%; inhibition at 1120 g/ha (Yellow nutsedge [18]; 1.12 kg/ha): 0%
